Reference: PMC4335062, “Data-Driven Prediction and Design of bZIP Coiled-Coil Interactions” (PLoS Computational Biology, 2015)
pKd: −log10 of the molar value. Where two headings read alike, the source gives them in different places. Values belong to the sequence of their own block, whether it stands above or below them. Where no end group is shown, it is not given here.

Assays:
Test in all cases: Direct-binding FRET assay
[1] = target: NFE2L1 (Homo sapiens, UniProt Q14494); design: made in house; conditions: read-out: Kd
Chain of NFE2L1 (Q14494 654-717 limits assumed): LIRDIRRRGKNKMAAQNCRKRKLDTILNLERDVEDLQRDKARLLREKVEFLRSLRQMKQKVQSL
Experimental: (§1) The direct binding assay was performed manually in 384-well plates and is similar to a previously described assay. Wells were filled with 20 μL of 1 mM TCEP-HCl. A 4 μM stock of acceptor protein was made fresh in 1 mM TCEP-HCl, and 20 μL was titrated in 2-fold dilutions over the wells. […] The direct-binding FRET data were fit as previously described. Briefly, the Kd of the designed peptide homodimer was experimentally determined and used with previously determined target homodimer Kd values to determine the heterodimer Kd. The homodimer Kd values used for the human bZIPs were from; experiments done by […] et al. used the same protein constructs for the human bZIP proteins, the same buffer conditions, and the same assay. The fitting used a system of ordinary differential equations to describe the concentrations of homo and heterodimers formed by the donor (D) and acceptor (A) as a function of the heterodimer Kd. MATLAB was used to simulate the binding experiment for different Kd values, and the value that gave the best agreement between simulation and experiment was assigned. A minimum 15% change in the donor fluorescence upon titrating the acceptor peptide from 0 to 1000 nM was required for a fit to be attempted. If this minimum was not met, the interaction was classified as “NS” for no signal change. […] These interactions were marked “AS” to indicate anomalous signal. We attributed this to interactions between the peptides, the dyes and the walls of the assay plates at low concentrations. These curves could not be fit, given their unusual shapes at low concentrations of acceptor. For such curves, we removed the first five points and re-fit the data. […] One example of this is increasing concentrations of acceptor causing an increase in donor fluorescence.

[2] = target: BACH1 (Homo sapiens, UniProt O14867); design: made in house; conditions: read-out: Kd
Experimental: as §1

[3] = target: MAF (Homo sapiens, UniProt O75444); design: made in house; conditions: read-out: Kd
Experimental: as §1

[4] = target: MAFB (Homo sapiens, UniProt Q9Y5Q3); design: made in house; conditions: read-out: Kd
Experimental: as §1

[5] = target: ATF6 (Homo sapiens, UniProt P18850); design: made in house; conditions: read-out: Kd
Chain of ATF6 (P18850 306-369 limits assumed): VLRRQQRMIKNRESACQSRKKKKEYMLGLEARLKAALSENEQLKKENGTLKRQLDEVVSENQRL
Experimental: as §1

[6] = target: BACH2 (Homo sapiens, UniProt Q9BYV9); design: made in house; conditions: read-out: Kd
Chain of BACH2 (Q9BYV9 646-709 limits assumed): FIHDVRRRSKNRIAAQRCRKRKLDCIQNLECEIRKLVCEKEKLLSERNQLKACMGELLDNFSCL
Experimental: as §1

[7] = target: T1, BATF (Homo sapiens, UniProt Q16520); conditions: read-out: Kd
T1 construct: made in house
T1 sequence (Q16520 26-89 limits assumed): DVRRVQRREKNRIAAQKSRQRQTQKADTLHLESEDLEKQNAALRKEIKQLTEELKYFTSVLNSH
Experimental: as §1

[8] = target: T2, NFE2L2 (Homo sapiens, UniProt Q16236); conditions: read-out: Kd
T2 construct: made in house
T2 sequence (Q16236 497-560 limits assumed): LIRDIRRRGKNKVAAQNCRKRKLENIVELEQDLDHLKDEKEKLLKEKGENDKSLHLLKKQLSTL
Experimental: as §1

[9] = target: T3, JUNB (Homo sapiens, UniProt P17275); conditions: mean or single, read-out: Kd
T3 construct: made in house
T3 sequence (P17275 268-331 limits assumed): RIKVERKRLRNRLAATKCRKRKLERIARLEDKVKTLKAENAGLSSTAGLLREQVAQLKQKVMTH
Experimental: as §1

[10] = target: T4, CREB3L1 (Homo sapiens, UniProt Q96BA8); conditions: read-out: Kd
T4 construct: made in house
T4 sequence (Q96BA8 290-353 limits assumed): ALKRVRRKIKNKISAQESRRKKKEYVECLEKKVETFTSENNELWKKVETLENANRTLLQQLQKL
Experimental: as §1

[11] = target: T5, CREB3L3 (Homo sapiens, UniProt Q68CJ9); conditions: mean or single, read-out: Kd
T5 construct: made in house
T5 sequence (Q68CJ9 243-306 limits assumed): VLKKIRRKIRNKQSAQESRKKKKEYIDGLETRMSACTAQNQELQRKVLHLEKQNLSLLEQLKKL
Experimental: as §1

[12] = 4°C, C-terminal rhodamine design, mean or single
[13] = 4°C, N-terminal rhodamine design, mean or single
[14] = 23°C, C-terminal rhodamine design, mean or single
[15] = 23°C, N-terminal rhodamine design, mean or single
[16] = 37°C, C-terminal rhodamine design, mean or single
[17] = 37°C, N-terminal rhodamine design, mean or single
[18] = 4°C, C-terminal rhodamine design
[19] = 4°C, N-terminal rhodamine design
[20] = 23°C, C-terminal rhodamine design
[21] = 23°C, N-terminal rhodamine design
[22] = 37°C, C-terminal rhodamine design
[23] = 37°C, N-terminal rhodamine design
[24] = 4°C, C-terminal fluorescein design as donor, TAMRA target titrated
[25] = 23°C, C-terminal fluorescein design as donor, TAMRA target titrated
[26] = 37°C, C-terminal fluorescein design as donor, TAMRA target titrated

- pKd [1, 12]: < 5.30
- pKd [1, 13]: < 6.00
- pKd [1, 14]: < 5.30
- pKd [1, 15]: < 6.00
- pKd [1, 16]: < 5.30
- pKd [1, 17]: < 6.00
- pKd [2, 12]: < 6.00
- pKd [2, 13]: < 5.30
- pKd [2, 14]: < 6.00
- pKd [2, 15]: < 5.30
- pKd [2, 16]: < 5.30
- pKd [2, 17]: < 6.00
- pKd [3, 12]: 6.10
- pKd [3, 13]: < 5.30
- pKd [3, 14]: < 5.30
- pKd [3, 15]: < 5.30
- pKd [3, 16]: < 6.00
- pKd [4, 12]: 6.14
- pKd [4, 13]: < 5.30
- pKd [4, 14]: < 5.30
- pKd [4, 16]: < 6.00
- pKd [4, 17]: < 5.30
- pKd [5, 12]: < 5.30
- pKd [5, 13]: < 5.30
- pKd [5, 14]: < 6.00
- pKd [5, 15]: < 5.30
- pKd [5, 16]: < 6.00
- pKd [5, 17]: < 5.30
- pKd [6, 12]: < 5.30
- pKd [6, 13]: < 6.00
- pKd [6, 14]: < 5.30
- pKd [6, 15]: < 5.30
- pKd [6, 16]: < 5.30
- pKd [6, 17]: < 5.30
- pKd [7, 12]: < 5.30
- pKd [7, 13]: 6.87
- pKd [7, 14]: < 5.30
- pKd [7, 15]: 6.42
- pKd [7, 16]: < 5.30
- pKd [7, 17]: < 5.30
- pKd [8, 12]: < 5.30
- pKd [8, 13]: < 6.00
- pKd [8, 14]: < 6.00
- pKd [8, 15]: < 6.00
- pKd [8, 16]: < 5.30
- pKd [8, 17]: < 6.00
- pKd [9, 18]: 5.44
- pKd [9, 19]: < 6.00
- pKd [9, 20]: < 6.00
- pKd [9, 21]: < 6.00
- pKd [9, 22]: < 6.00
- pKd [9, 23]: < 6.00
- pKd [10, 12]: 6.80
- pKd [10, 13]: < 5.30
- pKd [10, 14]: 6.28
- pKd [10, 15]: < 5.30
- pKd [10, 17]: < 6.00
- pKd [11, 18]: 6.64
- pKd [11, 19]: < 5.30
- pKd [11, 20]: 6.38
- pKd [11, 21]: < 5.30
- pKd [11, 22]: 6.18
- pKd [11, 23]: < 6.00
Sequence: KRIAYLRQRIAELRNENHVLESRIQRMEKEKDALQQDRDHLEYEL [ATF5-d1]

- pKd [1, 24]: < 6.00
- pKd [1, 12]: < 6.00
- pKd [1, 13]: < 6.00
- pKd [1, 25]: < 6.00
- pKd [1, 14]: < 6.00
- pKd [1, 15]: < 6.00
- pKd [1, 26]: < 6.00
- pKd [1, 16]: < 6.00
- pKd [1, 17]: < 6.00
- pKd [2, 24]: < 6.00
- pKd [2, 12]: < 6.00
- pKd [2, 13]: < 5.30
- pKd [2, 25]: < 6.00
- pKd [2, 14]: < 6.00
- pKd [2, 15]: < 6.00
- pKd [2, 26]: < 6.00
- pKd [2, 16]: < 6.00
- pKd [2, 17]: < 6.00
- pKd [3, 24]: < 6.00
- pKd [3, 12]: < 6.00
- pKd [3, 13]: < 6.00
- pKd [3, 25]: < 6.00
- pKd [3, 14]: < 6.00
- pKd [3, 15]: < 6.00
- pKd [3, 26]: < 6.00
- pKd [3, 16]: < 6.00
- pKd [3, 17]: < 6.00
- pKd [4, 24]: < 6.00
- pKd [4, 12]: < 5.30
- pKd [4, 13]: < 6.00
- pKd [4, 25]: < 6.00
- pKd [4, 14]: < 5.30
- pKd [4, 15]: < 6.00
- pKd [4, 26]: < 6.00
- pKd [4, 16]: < 5.30
- pKd [4, 17]: < 6.00
- pKd [5, 24]: < 5.30
- pKd [5, 25]: < 6.00
- pKd [5, 15]: < 6.00
- pKd [5, 26]: < 6.00
- pKd [5, 16]: < 5.30
- pKd ([5]; 37°C, C-terminal rhodamine design, repeat 1): < 5.30
- pKd ([5]; 37°C, C-terminal rhodamine design, repeat 2): < 5.30
- pKd ([5]; 37°C, C-terminal rhodamine design, repeat 3): < 5.30
- pKd [5, 17]: < 6.00
- pKd [6, 24]: < 6.00
- pKd [6, 12]: < 6.00
- pKd [6, 13]: < 6.00
- pKd [6, 25]: < 6.00
- pKd [6, 14]: < 6.00
- pKd [6, 15]: < 6.00
- pKd [6, 26]: < 6.00
- pKd [6, 16]: < 6.00
- pKd [6, 17]: < 6.00
- pKd [7, 24]: < 5.30
- pKd [7, 12]: < 5.30
- pKd [7, 13]: < 6.00
- pKd [7, 25]: < 6.00
- pKd [7, 14]: < 6.00
- pKd [7, 15]: < 6.00
- pKd [7, 26]: < 6.00
- pKd [7, 16]: < 6.00
- pKd [7, 17]: < 6.00
- pKd [8, 24]: < 6.00
- pKd [8, 12]: < 6.00
- pKd [8, 13]: < 6.00
- pKd [8, 25]: < 6.00
- pKd [8, 14]: < 6.00
- pKd [8, 15]: < 6.00
- pKd [8, 26]: < 6.00
- pKd [8, 16]: < 6.00
- pKd [8, 17]: < 6.00
- pKd [9, 18]: < 6.00
- pKd [9, 19]: < 6.00
- pKd [9, 20]: < 6.00
- pKd [9, 21]: < 6.00
- pKd [9, 22]: < 6.00
- pKd [9, 23]: < 6.00
- pKd [10, 24]: < 6.00
- pKd [10, 12]: < 6.00
- pKd [10, 13]: < 6.00
- pKd [10, 25]: < 6.00
- pKd [10, 14]: < 6.00
- pKd [10, 15]: < 6.00
- pKd [10, 26]: < 6.00
- pKd [10, 16]: < 6.00
- pKd [10, 17]: < 6.00
- pKd [11, 18]: < 6.00
- pKd [11, 19]: < 6.00
- pKd [11, 20]: < 6.00
- pKd [11, 21]: < 6.00
- pKd [11, 22]: < 6.00
- pKd [11, 23]: < 6.00
Sequence: EREAQLENRVAHLKEKNQELKAQNLHLKEALSEAQNRNQELKNDA [XBP1-d1]
